Measurements from ChEMBL document CHEMBL1157802, “5-Functionalized indazoles as glucocorticoid receptor agonists” (Bioorg Med Chem Lett, 2010).
Values belong to the compound of their own block, whether it stands above or below them.

What was measured:
hERG (KCNH2) = hERG (KCNH2) (Homo sapiens, UniProt Q12809); experiment: Inhibition of human ERG at 1 uM
Glucocorticoid receptor [1] = target: T1, Glucocorticoid receptor (Homo sapiens, UniProt P04150); experiment: Agonist activity at glucocorticoid receptor in human fibroblast assessed as inhibition of IL-1-beta-induced IL6 production treated 1 hr before IL1-beta challenge measured after 24 hrs by transrepression assay; type: functional
T1 sequence (P04150 whole entry): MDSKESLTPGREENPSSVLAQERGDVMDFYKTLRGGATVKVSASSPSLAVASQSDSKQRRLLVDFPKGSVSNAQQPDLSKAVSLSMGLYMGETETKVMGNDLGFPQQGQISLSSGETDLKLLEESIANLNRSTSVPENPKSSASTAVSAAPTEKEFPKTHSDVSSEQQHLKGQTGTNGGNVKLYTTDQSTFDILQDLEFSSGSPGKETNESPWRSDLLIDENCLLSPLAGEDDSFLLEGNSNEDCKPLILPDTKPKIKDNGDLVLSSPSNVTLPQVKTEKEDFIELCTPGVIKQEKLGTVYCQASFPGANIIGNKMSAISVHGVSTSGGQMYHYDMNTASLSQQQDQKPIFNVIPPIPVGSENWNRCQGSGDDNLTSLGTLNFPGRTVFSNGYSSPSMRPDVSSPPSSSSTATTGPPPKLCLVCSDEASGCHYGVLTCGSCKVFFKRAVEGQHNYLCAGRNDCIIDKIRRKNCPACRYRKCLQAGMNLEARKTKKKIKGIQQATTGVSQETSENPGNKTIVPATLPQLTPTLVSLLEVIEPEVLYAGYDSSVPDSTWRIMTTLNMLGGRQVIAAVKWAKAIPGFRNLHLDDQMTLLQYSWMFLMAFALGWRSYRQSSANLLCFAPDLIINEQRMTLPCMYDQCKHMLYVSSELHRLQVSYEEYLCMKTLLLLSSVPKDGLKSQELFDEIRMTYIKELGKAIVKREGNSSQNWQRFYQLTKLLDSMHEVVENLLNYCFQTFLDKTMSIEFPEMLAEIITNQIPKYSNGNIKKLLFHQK

Glucocorticoid receptor [2] = target: T1, Glucocorticoid receptor; experiment: Agonist activity at glucocorticoid receptor in human MDA-kb2 cells transfected with MMTV-LUC assessed as induction of MMTV-LTR/promoter linked LUC gene by luciferase transactivation assay; type: functional, cell-based
[3] = target: Voltage-gated inwardly rectifying potassium channel KCNH2 (Homo sapiens, UniProt Q12809); experiment: Inhibition of human ERG by patch clamp method
Glucocorticoid receptor [4] = target: T1, Glucocorticoid receptor
Description: Binding affinity to human glucocorticoid receptor by fluorescence polarization competitive binding assay

[5] = Selectivity for human glucocorticoid receptor over ERalpha
[6] = target: Prostaglandin E2 receptor EP4 subtype (Homo sapiens) (UniProt P35408); experiment: Inhibition of prostanoid EP4 receptor at 1 uM
[7] = Inhibition of central benzodiazepine receptor at 1 uM
[8] = target: Beta-2 adrenergic receptor (Homo sapiens) (UniProt P07550); experiment: Inhibition of adrenergic beta2 receptor at 1 uM
[9] = target: T2, Muscarinic acetylcholine receptor M2 (Homo sapiens) (UniProt P08172); experiment: Inhibition of muscarinic M2 receptor at 1 uM
T2 sequence (whole entry): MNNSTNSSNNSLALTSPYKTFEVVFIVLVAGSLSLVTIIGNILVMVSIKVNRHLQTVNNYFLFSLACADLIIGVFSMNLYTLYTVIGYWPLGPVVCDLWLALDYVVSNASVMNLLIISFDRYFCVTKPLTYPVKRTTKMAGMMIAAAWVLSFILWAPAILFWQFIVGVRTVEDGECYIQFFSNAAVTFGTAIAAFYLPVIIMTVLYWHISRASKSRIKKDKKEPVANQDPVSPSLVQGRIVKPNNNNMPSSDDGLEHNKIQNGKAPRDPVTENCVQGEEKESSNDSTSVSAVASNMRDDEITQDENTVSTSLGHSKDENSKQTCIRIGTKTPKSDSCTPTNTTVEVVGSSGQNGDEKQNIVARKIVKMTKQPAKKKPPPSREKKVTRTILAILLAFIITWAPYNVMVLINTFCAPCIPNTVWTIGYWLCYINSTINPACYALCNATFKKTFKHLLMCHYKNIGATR

[10] = Inhibition of calcium channel L type dihydropyridine binding site at 1 uM
[11] = Inhibition of ATP-sensitive potassium channel at 1 uM
[12] = Inhibition of NMDA receptor at 1 uM
[13] = Selectivity for human glucocorticoid receptor over progesterone receptor
[14] = Inhibition of nicotinic acetylcholine receptor at 1 uM
[15] = target: Mu-type opioid receptor (Homo sapiens) (UniProt P35372); experiment: Inhibition of mu opioid receptor at 1 uM
[16] = target: Histamine H1 receptor (Homo sapiens) (UniProt P35367); experiment: Inhibition of histamine H1 receptor at 1 uM
[17] = target: T3, Adenosine receptor A1 (Homo sapiens) (UniProt P30542); experiment: Inhibition of adenosine A1 receptor at 1 uM
T3 sequence (whole entry): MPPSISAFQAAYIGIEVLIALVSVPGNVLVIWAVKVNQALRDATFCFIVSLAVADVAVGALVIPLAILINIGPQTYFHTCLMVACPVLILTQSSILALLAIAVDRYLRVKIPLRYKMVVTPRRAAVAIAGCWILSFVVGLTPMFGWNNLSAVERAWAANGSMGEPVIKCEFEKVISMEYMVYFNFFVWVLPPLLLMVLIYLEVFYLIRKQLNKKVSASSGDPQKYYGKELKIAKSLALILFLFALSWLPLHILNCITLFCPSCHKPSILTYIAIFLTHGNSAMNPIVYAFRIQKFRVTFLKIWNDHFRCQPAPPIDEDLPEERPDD

[18] = target: D(2) dopamine receptor (Homo sapiens) (UniProt P14416); experiment: Inhibition of dopamine D2S receptor at 1 uM
[19] = Selectivity for human glucocorticoid receptor over androgen receptor
[20] = target: Sodium-dependent noradrenaline transporter (Homo sapiens) (UniProt P23975); experiment: Inhibition of norepinephrine transporter at 1 uM
[21] = Inhibition of GABAA receptor agonist site at 1 uM; type: functional
[22] = target: Sigma non-opioid intracellular receptor 1 (Homo sapiens) (UniProt Q99720); experiment: Inhibition of sigma 1 receptor at 1 uM
[23] = Inhibition of phorbol ester site of PKC at 1 uM
[24] = Inhibition of sigma 2 receptor at 1 uM
[25] = Inhibition of rolipram binding site at 1 uM
[26] = Inhibition of central imidazoline I2 receptor at 1 uM
[27] = target: D(1A) dopamine receptor (Homo sapiens) (UniProt P21728); experiment: Inhibition of dopamine D1 receptor at 1 uM
[28] = target: T4, Alpha-1B adrenergic receptor (Homo sapiens) (UniProt P35368); experiment: Inhibition of adrenergic Alpha-1B receptor at 1 uM
T4 sequence (whole entry): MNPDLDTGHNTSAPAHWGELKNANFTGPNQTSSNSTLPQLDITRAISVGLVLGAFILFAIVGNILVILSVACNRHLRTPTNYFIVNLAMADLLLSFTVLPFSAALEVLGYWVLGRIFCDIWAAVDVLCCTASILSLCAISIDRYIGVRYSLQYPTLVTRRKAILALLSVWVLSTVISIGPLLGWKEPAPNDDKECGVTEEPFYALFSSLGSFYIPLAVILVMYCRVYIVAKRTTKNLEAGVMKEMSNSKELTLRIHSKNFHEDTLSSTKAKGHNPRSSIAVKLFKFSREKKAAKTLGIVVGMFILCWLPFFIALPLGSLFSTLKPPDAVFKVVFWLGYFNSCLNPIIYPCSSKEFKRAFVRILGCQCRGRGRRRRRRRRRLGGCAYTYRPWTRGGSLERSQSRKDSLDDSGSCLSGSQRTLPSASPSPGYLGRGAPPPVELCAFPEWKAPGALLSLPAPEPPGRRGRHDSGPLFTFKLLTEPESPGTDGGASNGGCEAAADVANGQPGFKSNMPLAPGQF

[29] = Inhibition of sodium channel site 2 at 1 uM
[30] = Inhibition of phencyclidine receptor at 1 uM
[31] = target: T5, Alpha-1A adrenergic receptor (Homo sapiens) (UniProt P35348); experiment: Inhibition of adrenergic alpha1A receptor at 1 uM
T5 sequence (whole entry): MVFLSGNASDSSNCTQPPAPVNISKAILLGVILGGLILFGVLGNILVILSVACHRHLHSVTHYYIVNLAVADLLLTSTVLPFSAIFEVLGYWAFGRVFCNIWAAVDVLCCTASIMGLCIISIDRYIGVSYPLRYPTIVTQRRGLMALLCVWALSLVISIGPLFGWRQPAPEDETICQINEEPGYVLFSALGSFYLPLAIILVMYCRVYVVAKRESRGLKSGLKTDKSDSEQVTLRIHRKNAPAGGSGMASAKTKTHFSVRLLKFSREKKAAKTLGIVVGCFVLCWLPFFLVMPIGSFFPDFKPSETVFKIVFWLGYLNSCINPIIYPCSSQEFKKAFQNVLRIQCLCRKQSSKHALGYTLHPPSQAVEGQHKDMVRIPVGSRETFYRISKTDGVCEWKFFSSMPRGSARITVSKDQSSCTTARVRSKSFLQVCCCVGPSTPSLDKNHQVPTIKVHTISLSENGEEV

[32] = target: Beta-1 adrenergic receptor (Homo sapiens) (UniProt P08588); experiment: Inhibition of adrenergic beta-1 receptor at 1 uM
[33] = target: Muscarinic acetylcholine receptor M3 (Homo sapiens) (UniProt P20309); experiment: Inhibition of muscarinic M3 receptor at 1 uM
[34] = target: T6, Alpha-2A adrenergic receptor (Homo sapiens) (UniProt P08913); experiment: Inhibition of adrenergic alpha2A receptor at 1 uM
T6 sequence (whole entry): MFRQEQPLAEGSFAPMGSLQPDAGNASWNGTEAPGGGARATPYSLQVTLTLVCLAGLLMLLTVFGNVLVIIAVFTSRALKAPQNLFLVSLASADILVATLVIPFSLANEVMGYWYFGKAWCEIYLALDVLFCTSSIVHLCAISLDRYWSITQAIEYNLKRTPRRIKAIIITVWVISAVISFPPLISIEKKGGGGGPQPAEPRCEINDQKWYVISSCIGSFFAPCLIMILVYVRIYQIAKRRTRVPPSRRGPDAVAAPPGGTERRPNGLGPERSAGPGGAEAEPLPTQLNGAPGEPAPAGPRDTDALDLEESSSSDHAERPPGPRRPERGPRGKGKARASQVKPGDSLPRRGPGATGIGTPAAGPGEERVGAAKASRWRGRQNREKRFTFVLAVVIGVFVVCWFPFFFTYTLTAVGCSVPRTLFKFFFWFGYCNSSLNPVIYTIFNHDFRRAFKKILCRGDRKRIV

[35] = Selectivity for human glucocorticoid receptor over ERbeta
[36] = Inhibition of nicotinic bungarotoxin-sensitive acetylcholine receptor at 1 uM
[37] = target: Adenosine receptor A2a (Homo sapiens) (UniProt P29274); experiment: Inhibition of adenosine A2A receptor at 1 uM

Sequence of Beta-2 adrenergic receptor (Homo sapiens) (P07550 whole entry, looked up): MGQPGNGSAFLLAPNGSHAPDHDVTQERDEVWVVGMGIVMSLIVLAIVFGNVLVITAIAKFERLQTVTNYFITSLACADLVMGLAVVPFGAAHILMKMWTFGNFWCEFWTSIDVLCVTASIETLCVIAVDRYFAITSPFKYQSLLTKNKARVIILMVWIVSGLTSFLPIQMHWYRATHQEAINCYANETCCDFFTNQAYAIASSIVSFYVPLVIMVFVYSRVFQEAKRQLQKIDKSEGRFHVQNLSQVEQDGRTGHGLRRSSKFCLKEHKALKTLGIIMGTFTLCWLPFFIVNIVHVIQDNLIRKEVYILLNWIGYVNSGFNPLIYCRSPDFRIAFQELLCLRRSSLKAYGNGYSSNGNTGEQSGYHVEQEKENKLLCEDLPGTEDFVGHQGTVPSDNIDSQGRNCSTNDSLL
Sequence of Sodium-dependent noradrenaline transporter (Homo sapiens) (P23975 whole entry): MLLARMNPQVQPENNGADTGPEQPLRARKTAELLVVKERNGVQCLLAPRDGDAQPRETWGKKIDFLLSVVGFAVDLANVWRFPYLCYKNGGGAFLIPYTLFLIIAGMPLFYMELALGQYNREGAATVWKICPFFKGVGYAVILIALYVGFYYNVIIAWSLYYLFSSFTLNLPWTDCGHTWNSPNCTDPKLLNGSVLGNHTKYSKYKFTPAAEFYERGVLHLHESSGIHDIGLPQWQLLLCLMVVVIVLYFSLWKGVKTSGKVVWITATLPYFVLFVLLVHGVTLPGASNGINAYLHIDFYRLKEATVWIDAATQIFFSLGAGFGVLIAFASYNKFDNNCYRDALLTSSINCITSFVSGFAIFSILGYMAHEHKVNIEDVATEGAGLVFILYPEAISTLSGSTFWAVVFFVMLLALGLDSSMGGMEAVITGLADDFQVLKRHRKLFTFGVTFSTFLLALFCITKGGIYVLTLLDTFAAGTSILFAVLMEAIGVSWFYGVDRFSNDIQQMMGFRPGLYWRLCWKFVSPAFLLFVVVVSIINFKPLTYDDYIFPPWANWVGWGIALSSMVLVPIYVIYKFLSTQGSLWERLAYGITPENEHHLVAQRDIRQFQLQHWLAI
Sequence of Beta-1 adrenergic receptor (Homo sapiens) (P08588 whole entry, looked up): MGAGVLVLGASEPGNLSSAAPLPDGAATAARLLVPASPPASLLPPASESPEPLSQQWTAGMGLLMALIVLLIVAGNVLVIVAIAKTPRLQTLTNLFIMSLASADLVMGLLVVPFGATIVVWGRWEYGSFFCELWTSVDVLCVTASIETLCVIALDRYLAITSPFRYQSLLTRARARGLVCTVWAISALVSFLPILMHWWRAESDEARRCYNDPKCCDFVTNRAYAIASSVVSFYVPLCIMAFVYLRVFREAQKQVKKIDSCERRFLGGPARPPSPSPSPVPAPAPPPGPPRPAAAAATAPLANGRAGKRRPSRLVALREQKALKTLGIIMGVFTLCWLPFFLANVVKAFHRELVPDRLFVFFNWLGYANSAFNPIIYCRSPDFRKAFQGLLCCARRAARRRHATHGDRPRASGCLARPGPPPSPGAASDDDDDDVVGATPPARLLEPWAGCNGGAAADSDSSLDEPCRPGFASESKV
Sequence of hERG (KCNH2) (Q12809 whole entry): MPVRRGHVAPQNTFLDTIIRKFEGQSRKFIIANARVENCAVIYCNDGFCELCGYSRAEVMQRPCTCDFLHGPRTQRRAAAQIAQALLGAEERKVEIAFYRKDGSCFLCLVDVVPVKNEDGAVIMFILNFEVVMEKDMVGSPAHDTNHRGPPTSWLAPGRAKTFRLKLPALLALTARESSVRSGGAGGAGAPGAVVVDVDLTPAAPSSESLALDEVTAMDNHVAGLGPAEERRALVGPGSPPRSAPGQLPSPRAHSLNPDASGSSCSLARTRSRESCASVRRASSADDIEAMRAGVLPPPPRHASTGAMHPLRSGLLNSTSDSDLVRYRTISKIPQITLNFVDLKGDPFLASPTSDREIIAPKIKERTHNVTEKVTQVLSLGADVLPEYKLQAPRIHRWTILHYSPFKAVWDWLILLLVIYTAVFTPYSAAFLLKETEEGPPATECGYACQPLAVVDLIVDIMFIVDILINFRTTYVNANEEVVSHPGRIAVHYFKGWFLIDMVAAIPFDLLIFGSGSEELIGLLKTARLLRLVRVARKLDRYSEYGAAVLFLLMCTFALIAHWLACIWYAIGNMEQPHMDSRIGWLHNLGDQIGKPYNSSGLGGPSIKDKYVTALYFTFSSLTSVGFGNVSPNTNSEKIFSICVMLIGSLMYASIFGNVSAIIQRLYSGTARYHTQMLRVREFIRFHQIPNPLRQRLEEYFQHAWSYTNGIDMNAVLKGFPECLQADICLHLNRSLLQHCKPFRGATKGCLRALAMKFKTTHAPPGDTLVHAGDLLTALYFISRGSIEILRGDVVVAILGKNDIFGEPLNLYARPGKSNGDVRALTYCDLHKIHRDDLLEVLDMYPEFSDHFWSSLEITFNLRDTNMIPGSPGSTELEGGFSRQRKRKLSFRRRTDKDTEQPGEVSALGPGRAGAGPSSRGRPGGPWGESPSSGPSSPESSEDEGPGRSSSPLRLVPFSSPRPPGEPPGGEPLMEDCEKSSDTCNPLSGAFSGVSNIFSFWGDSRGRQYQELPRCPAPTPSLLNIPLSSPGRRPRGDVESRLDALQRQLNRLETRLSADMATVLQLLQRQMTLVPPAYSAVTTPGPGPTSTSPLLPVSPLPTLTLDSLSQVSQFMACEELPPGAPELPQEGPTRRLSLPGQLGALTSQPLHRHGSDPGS
Sequence of Voltage-gated inwardly rectifying potassium channel KCNH2 (Q12809 whole entry): as above
Sequence of Mu-type opioid receptor (Homo sapiens) (P35372 whole entry): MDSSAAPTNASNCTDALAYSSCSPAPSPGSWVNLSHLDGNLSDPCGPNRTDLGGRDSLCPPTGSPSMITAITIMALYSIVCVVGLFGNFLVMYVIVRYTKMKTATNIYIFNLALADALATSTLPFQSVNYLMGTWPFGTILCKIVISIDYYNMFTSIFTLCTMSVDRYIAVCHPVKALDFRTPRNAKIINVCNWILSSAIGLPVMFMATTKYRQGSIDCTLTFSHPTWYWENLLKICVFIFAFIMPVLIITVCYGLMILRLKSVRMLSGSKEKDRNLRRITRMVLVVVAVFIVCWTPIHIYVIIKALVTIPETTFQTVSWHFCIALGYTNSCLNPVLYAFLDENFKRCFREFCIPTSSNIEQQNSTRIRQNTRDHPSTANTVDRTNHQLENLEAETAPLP
Sequence of Muscarinic acetylcholine receptor M3 (Homo sapiens) (P20309 whole entry, looked up): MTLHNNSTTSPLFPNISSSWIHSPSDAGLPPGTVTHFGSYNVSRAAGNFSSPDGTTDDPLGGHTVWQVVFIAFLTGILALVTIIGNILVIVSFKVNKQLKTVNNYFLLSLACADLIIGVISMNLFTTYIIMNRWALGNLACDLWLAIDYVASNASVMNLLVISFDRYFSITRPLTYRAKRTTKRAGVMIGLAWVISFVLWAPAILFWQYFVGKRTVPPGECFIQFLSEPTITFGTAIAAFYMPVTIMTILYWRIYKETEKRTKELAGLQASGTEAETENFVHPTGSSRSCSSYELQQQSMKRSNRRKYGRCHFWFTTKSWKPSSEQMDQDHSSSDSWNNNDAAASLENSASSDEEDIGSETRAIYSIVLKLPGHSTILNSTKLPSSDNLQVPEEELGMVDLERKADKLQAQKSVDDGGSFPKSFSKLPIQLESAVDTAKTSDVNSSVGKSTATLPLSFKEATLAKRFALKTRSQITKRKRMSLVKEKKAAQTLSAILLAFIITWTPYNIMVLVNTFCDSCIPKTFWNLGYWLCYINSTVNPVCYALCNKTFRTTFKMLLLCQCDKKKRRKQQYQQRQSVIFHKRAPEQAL
Sequence of Sigma non-opioid intracellular receptor 1 (Homo sapiens) (Q99720 whole entry): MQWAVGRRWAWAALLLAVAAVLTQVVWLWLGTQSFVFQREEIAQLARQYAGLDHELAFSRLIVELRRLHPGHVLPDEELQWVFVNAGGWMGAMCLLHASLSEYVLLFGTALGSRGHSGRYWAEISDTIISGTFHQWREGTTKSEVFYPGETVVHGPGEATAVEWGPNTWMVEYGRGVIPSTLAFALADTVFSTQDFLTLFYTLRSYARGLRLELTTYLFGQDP

EC50 (Glucocorticoid receptor [1]): 0.112 µM
EC50 (Glucocorticoid receptor [2]; mda-kb2): Not Active
IC50 (Glucocorticoid receptor [4]): 0.054 µM
Compound: N#Cc1cc(C(O)(c2ccc3c(cnn3-c3ccc(F)cc3)c2)C(F)(F)F)ccc1F (single isomer, unassigned; (-)) [listing 1 of 2 here]
inhibition at 1 µM (hERG (KCNH2)): < 50%
IC50 [3]: > 10 µM

Ratio [5]: > 1000
inhibition [6]: < 50%
inhibition [7]: < 50%
inhibition [8]: < 50%
inhibition [9]: < 50%
inhibition [10]: < 50%
inhibition [11]: < 50%
inhibition [12]: < 50%
Ratio [13]: > 1000
inhibition [14]: < 50%
inhibition [15]: < 50%
inhibition [16]: < 50%
inhibition [17]: < 50%
inhibition [18]: < 50%
Ratio [19]: > 1000
inhibition [20]: < 50%
inhibition [21]: < 50%
inhibition [22]: < 50%
inhibition [23]: < 50%
inhibition [24]: < 50%
inhibition [25]: < 50%
inhibition [26]: < 50%
inhibition [27]: < 50%
inhibition [28]: < 50%
inhibition [29]: < 50%
inhibition [30]: < 50%
inhibition [31]: < 50%
inhibition [32]: < 50%
inhibition [33]: < 50%
inhibition [34]: < 50%
Ratio [35]: > 1000
inhibition [37]: < 50%
Compound: N#Cc1cc(C(O)(c2ccc3c(cnn3-c3ccc(F)cc3)c2)C(F)(F)F)ccc1F (single isomer, unassigned; (-)) [listing 2 of 2 here]
inhibition [36]: < 50%

Compound: OC(c1ccc(F)c(Cl)c1)(c1ccc2c(cnn2-c2ccc(F)cc2)c1)C(F)(F)F (single isomer, unassigned; (-)) [1-(3-CHLORO-4-FLUOROPHENYL)-2,2,2-TRIFLUORO-1-(1-(4-FLUOROPHENYL)-1H-INDAZOL-5-YL)ETHANOL (ENANTIOMERIC MIX)]
EC50 (Glucocorticoid receptor [1]): 0.093 µM
EC50 (Glucocorticoid receptor [2]; read-out: EC50): 1.1 µM
IC50 (Glucocorticoid receptor [4]): 0.049 µM
